Assay results: the supplement of paper PMC10307832

Legend:
Assay in all cases: relative viability (nuclei count vs DMSO), 5 days (fraction); higher = more cells survive
[1] = compound: C[C@@]1(C(=O)Nc2ccc(F)nc2)CCCN1c1nc(Nc2cc(C3CC3)n[nH]2)c2cccn2n1 + Nc1ncn([C@H]2C[C@H](O)[C@@H](CO)O2)c(=O)n1 [Decitabine] (partner 2 µM)
Procedure, shortened: (§1)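 Relative viability divides the nuclei count in treated wells by that in vehicle wells. Lung cancer cell lines were seeded in 1536-well plates, dosed by pin tool the next day, and fixed and stained after 5 days in one step with final 0.05% Triton X-100, 1% formaldehyde and 1 ug/ml Hoechst. Dosing was a single drug or a fixed anchor-drug dose plus five library-drug doses (not always all listed) in √10 steps, and values are medians of duplicate plates imaged at 4×.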

Motesanib + Luminespib = compound: CC1(C)CNc2cc(NC(=O)c3cccnc3NCc3ccncc3)ccc21 [Motesanib] + CCNC(=O)c1noc(-c2cc(C(C)C)c(O)cc2O)c1-c1ccc(CN2CCOCC2)cc1 [Luminespib] (partner 0.01 µM)
Procedure, shortened: as §1

[2] = compound: C[C@@]1(C(=O)Nc2ccc(F)nc2)CCCN1c1nc(Nc2cc(C3CC3)n[nH]2)c2cccn2n1 + C[C@]1(O)C[C@@H](c2nc(-c3ccc4ccc(-c5ccccc5)nc4c3)c3c(N)nccn32)C1 [Linsitinib] (partner 1 µM)
Procedure, shortened: as §1

[3] = compound: C[C@@]1(C(=O)Nc2ccc(F)nc2)CCCN1c1nc(Nc2cc(C3CC3)n[nH]2)c2cccn2n1 + CC(=O)Nc1cccc(-n2c(=O)n(C3CC3)c(=O)c3c(Nc4ccc(I)cc4F)n(C)c(=O)c(C)c32)c1 [Trametinib] (partner 0.02 µM)
Procedure, shortened: as §1

Cell Line | relative viability ([1]; first compound 0.04 µM) | relative viability ([1]; first compound 0.1265 µM) | relative viability ([1]; first compound 0.4 µM) | relative viability ([1]; first compound 1.265 µM) | relative viability (Motesanib + Luminespib; first compound 0.01 µM) | relative viability (Motesanib + Luminespib; first compound 0.03162 µM) | relative viability (Motesanib + Luminespib; first compound 0.1 µM) | relative viability (Motesanib + Luminespib; first compound 0.3162 µM) | relative viability (Motesanib + Luminespib; first compound 1 µM) | relative viability ([2]; first compound 0.04 µM) | relative viability ([2]; first compound 0.1265 µM) | relative viability ([2]; first compound 0.4 µM) | relative viability ([2]; first compound 1.265 µM) | relative viability ([3]; first compound 0.04 µM) | relative viability ([3]; first compound 0.1265 µM) | relative viability ([3]; first compound 0.4 µM) | relative viability ([3]; first compound 1.265 µM)
NCI-H1944 | 0.372 | 0.377 | 0.376 | 0.386 | 0.79 | 0.785 | 0.749 | 0.772 | 0.78 | 1.18 | 1.2 | 1.1 | 1.3 | 0.352 | 0.363 | 0.284 | 0.384
NCI-H1975 | 0.38 | 0.388 | 0.319 | 0.303 | 0.275 | 0.203 | 0.224 | 0.261 | 0.361 | 0.913 | 0.922 | 0.933 | 0.727 | 0.272 | 0.273 | 0.313 | 0.234
NCI-H1993 | 0.532 | 0.522 | 0.486 | 0.458 | 0.923 | 0.734 | 0.826 | 0.863 | 0.932 | 0.705 | – | 0.723 | 0.733 | 0.468 | 0.42 | 0.534 | 0.46
NCI-H2009 | 0.401 | 0.369 | 0.406 | 0.313 | 1.01 | 1.04 | 0.945 | 1.07 | 1.01 | 1.2 | 1.2 | 1.13 | 1.19 | 0.297 | 0.314 | 0.235 | 0.243
NCI-H2023 | 0.234 | 0.228 | 0.177 | 0.139 | 0.778 | 0.687 | 0.855 | 0.811 | 0.783 | 0.699 | 0.619 | 0.537 | 0.657 | 0.454 | 0.387 | 0.297 | 0.277
NCI-H2085 | 0.51 | 0.499 | 0.538 | 0.528 | 0.47 | 0.434 | 0.428 | 0.438 | 0.462 | 0.877 | 0.873 | 0.809 | 0.822 | 0.929 | 0.471 | 0.58 | 0.636
NCI-H2087 | 0.237 | 0.191 | 0.258 | 0.16 | 0.159 | 0.174 | 0.149 | 0.149 | 0.145 | 0.933 | 0.935 | 0.962 | 0.932 | 0.158 | 0.161 | 0.15 | 0.138
NCI-H2126 | 0.539 | 0.389 | 0.36 | 0.471 | 0.9 | 0.901 | 0.963 | 0.933 | 0.961 | 0.736 | 0.685 | 0.712 | 0.771 | 0.447 | 0.346 | 0.336 | 0.415
NCI-H2347 | 0.571 | 0.574 | 0.487 | 0.599 | 0.858 | 0.254 | 0.5 | 0.48 | 0.4 | 0.988 | 0.736 | 0.915 | 0.893 | 0.251 | 0.289 | 0.256 | 0.248
NCI-H2405 | 0.68 | 0.487 | 0.488 | 0.576 | – | 0.536 | 0.741 | 0.689 | 0.813 | 1.04 | 0.91 | 0.779 | 0.766 | 0.461 | 0.382 | 0.353 | 0.381
NCI-H3122 | 0.361 | 0.337 | 0.349 | 0.386 | 0.0808 | 0.0851 | 0.0914 | 0.0799 | 0.0833 | 1.04 | 1.1 | 1.01 | 1.06 | 0.181 | 0.202 | 0.181 | 0.2
PC-3 [JPC-3] | 0.786 | 0.608 | 0.804 | 0.766 | 0.686 | 0.745 | 0.683 | 0.597 | 0.733 | 0.972 | 0.94 | 0.964 | 0.934 | 0.628 | 0.441 | 0.513 | 0.603
PC-14 | 0.209 | 0.27 | 0.177 | 0.172 | 0.117 | 0.142 | 0.126 | 0.218 | 0.154 | 1.09 | 0.814 | 0.825 | 1.01 | 0.765 | 0.649 | 0.696 | 0.687
RERF-LC-KJ | 0.662 | 0.629 | 0.468 | 0.467 | 1.31 | 1.2 | 1.12 | 1.38 | 1.27 | 0.868 | 0.818 | 0.838 | 0.857 | 0.84 | 0.665 | 0.639 | 0.685
SK-LU-1 | 0.672 | 0.543 | 0.489 | 0.524 | 0.219 | 0.188 | 0.195 | 0.204 | 0.158 | 1.15 | 1.13 | 0.74 | 0.913 | 0.45 | 0.413 | 0.421 | 0.469
SK-MES-1 | 0.333 | 0.424 | 0.333 | 0.344 | 0.84 | 0.842 | 0.986 | 0.785 | 0.721 | 1.03 | 0.95 | 0.957 | 1.05 | 0.604 | 0.483 | 0.522 | 0.633
SW 1573 | 0.465 | 0.413 | 0.429 | 0.177 | 0.152 | 0.266 | 0.207 | 0.323 | 0.335 | 0.914 | 0.665 | 0.656 | 0.806 | 0.496 | 0.389 | 0.368 | 0.412
